{"source": "patent US11926624B2", "about": "(INTERNATIONAL PAPER COMPANY, priority 2018, dated 2024)", "origin": "cited, not measured here", "key": {"Renilla Luciferase": {"biological_target": "T1, Renilla Luciferase (Renilla reniformis, UniProt P27652)", "T1 sequence (P27652 1-311)": "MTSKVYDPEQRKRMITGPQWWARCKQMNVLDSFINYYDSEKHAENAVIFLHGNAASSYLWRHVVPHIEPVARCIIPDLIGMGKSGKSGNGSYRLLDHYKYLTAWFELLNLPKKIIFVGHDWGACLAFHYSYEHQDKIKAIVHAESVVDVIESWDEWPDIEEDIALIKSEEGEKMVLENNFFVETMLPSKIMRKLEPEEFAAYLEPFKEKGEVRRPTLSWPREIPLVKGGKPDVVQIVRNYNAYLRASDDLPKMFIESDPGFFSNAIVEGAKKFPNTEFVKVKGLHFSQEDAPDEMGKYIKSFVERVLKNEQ", "conditions": "for Initial Intensity / Total Light / Aem: with Renilla Luciferase; for Initial Intensity: luminescent intensity as % initial intensity; for Total Light: native = 100"}, "[1]": {"test_system": "Gaussia luciferase (Gluc)"}, "aequorin": {"biological_target": "T2, aequorin (Aequorea victoria, UniProt P07164)", "T2 sequence (P07164 8-196)": "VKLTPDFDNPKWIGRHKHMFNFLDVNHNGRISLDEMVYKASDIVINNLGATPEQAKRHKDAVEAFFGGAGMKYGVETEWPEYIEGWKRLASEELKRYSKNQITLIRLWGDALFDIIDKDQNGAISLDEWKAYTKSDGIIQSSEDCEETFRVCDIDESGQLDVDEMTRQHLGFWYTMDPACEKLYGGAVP", "conditions": "for luminescence intensity relative to coelenterazine (native form): coelenterazine-aequorin/apoaequorin complex"}}, "note": "Like-named read-outs stand apart in the source and are kept apart here."}
{"compound": "8-benzyl-2-(4-hydroxybenzyl)-6-(4-hydroxyphenyl)imidazo[1,2-α]pyrazin-3(7H)-one [coelenterazine]", "values": [{"measurement": "Initial Intensity", "setting": "Renilla Luciferase; listed as native", "value": 45, "unit": "%"}, {"measurement": "Initial Intensity", "setting": "Renilla Luciferase; listed as native coelenterazine", "value": "about 45%"}, {"measurement": "Total Light", "setting": "Renilla Luciferase", "value": 100, "unit": "%"}]}
{"compound": "O=c1c(Cc2ccccc2)nc2c(Cc3ccccc3)[nH]c(-c3ccccc3)cn1-2", "note": "[coelenterazine 400a, (2-2′(4-dehydroxy)) coelenterazine]", "values": [{"measurement": "oxidation with Gaussia luciferase", "setting": "[1]", "value": "does not oxidize well"}, {"measurement": "emission maximum", "setting": "Renilla Luciferase", "value": "about 400 nm"}, {"measurement": "substrate quality for Renilla luciferase", "setting": "Renilla Luciferase", "value": "good substrate"}]}
{"compound": "O=c1c(Cc2ccc(O)cc2)nc2c(CC3CCCC3)[nH]c(-c3ccc(O)cc3)cn1-2", "note": "[coelenterazine cp]", "values": [{"measurement": "Aem", "setting": "Renilla Luciferase", "value": 470, "unit": "nm"}, {"measurement": "Total Light", "setting": "Renilla Luciferase", "value": 23, "unit": "%"}]}
{"compound": "O=c1c(Cc2ccc(F)cc2)nc2c(Cc3ccccc3)[nH]c(-c3ccc(O)cc3)cn1-2", "note": "[coelenterazine f]", "values": [{"measurement": "Aem", "setting": "Renilla Luciferase", "value": 473, "unit": "nm"}, {"measurement": "Initial Intensity", "setting": "Renilla Luciferase", "value": 45, "unit": "%"}, {"measurement": "Total Light", "setting": "Renilla Luciferase", "value": 28, "unit": "%"}, {"measurement": "luminescence intensity relative to coelenterazine (native form)", "setting": "aequorin", "value": "about 20 times"}, {"measurement": "emission maximum longer than that of the native form", "setting": "aequorin; coelenterazine-apoaequorin complex", "value": "about 8 nm"}]}
{"compound": "O=c1c(Cc2ccc(F)cc2)nc2c(CC3CCCC3)[nH]c(-c3ccc(O)cc3)cn1-2", "note": "[coelenterazine fcp]", "values": [{"measurement": "substrate quality for Renilla luciferase", "setting": "Renilla Luciferase", "value": "poor substrate"}, {"measurement": "luminescence intensity relative to coelenterazine (native form)", "setting": "aequorin", "value": "about 135 times"}]}
